Values after ≈ are worked out from the molar mass of the structure shown. Read-outs that look alike come from different tables or passages of the source.
How the values were obtained:
[1] = test system: Mycobacterium intracellulare ATCC 13950; test: Antibacterial activity against nontuberculous mycobacteria, resazurin MIC50; format: cell-based; settings: ATCC13950
[2] = test system: Mycobacterium avium ATCC 700898; test: as above; format: cell-based; settings: ATCC700898
C. difficile = test: Antibacterial activity against Clostridium difficile, agar medium dilution MIC (CLSI); format: cell-based; settings: Clostridioides difficile
[3] = test system: Mycobacterium abscessus ATCC 19977; test: Antibacterial activity against nontuberculous mycobacteria, resazurin MIC50; format: cell-based; settings: Mycobacteroides abscessus, ATCC19977
IL-6 = test: Anti-inflammatory efficacy: IL-6 secretion in LPS-treated RAW 264.7 cells (ELISA); format: cell-based, mouse; settings: RAW 264.7 cells, 5, 10, 20, 40 ug/mL plus 1 ug/ml LPS, 24 hours, versus LPS only
Protocol: (§1) In order to confirm the anti-inflammatory effect of the micrococcin compound (Compound 13; Micrococcin P2) prepared in Example 1 of the present invention, an inflammatory cytokine secretion amount was measured.
(§2) RAW 264.7 cells which are mouse-derived macrophage cell lines were distributed from Korean Cell Line Bank (KCLB), and a DMEM (Dulbeccon's modified Eagle's medium; PAA, Austria) medium including 1% Penicillin-Streptomycin and 10% FBS (fetal bovine serum; Gibco Laboratories) was used. Cells were cultured under the conditions of 37° C. and 5% CO2.
(§3) The cultured RAW 264.7 cells were dispensed at 2x10^5 cells/well in a 24-well plate, the micrococcin compound (Compound 13; Micrococcin P2) prepared in Example 1 was treated by concentrations (5, 10, 20, 40 ug/mL) and then treated 1 ug/ml of lipopolysaccharide (LPS), and culture was performed in an incubator (5% CO2, 37° C.) for 24 hours.
(§4) A control group was a cell group which was not treated, and as a negative control group, a cell group treated with only LPS was used.
(§5) After completion of culture, a medium of each well was collected (at 4° C., 12,000 rpm for 10 minutes) and centrifuged, a supernatant was taken, and the concentration of inflammatory cytokine (IL-6, Il-1B) in the medium was quantified using an ELISA kit (R&D system, BD).

M. tuberculosis = test: Antibacterial activity against tuberculosis bacteria, resazurin (REMA) MIC50; format: cell-based; settings: Mycobacterium tuberculosis, read-out: MIC50
Il-1B = test: Anti-inflammatory efficacy: IL-1B secretion in LPS-treated RAW 264.7 cells (ELISA); format: cell-based, mouse; settings: RAW 264.7 cells, 5, 10, 20, 40 ug/mL plus 1 ug/ml LPS, 24 hours, versus LPS only
Protocol: as §1, §2, §3, §4, §5

[4] = test system: C. difficile Ribotype 027; test: Efficacy in Clostridium difficile-infected mouse model (survival); format: in vivo; settings: C57BL/6J mouse, 30 mg/kg orally once a day for 5 days
[5] = Mycobacterium intracellulare ATCC 13950, read-out: MIC50
[6] = Mycobacterium avium ATCC 700898, read-out: MIC50
[7] = ATCC9689, C. difficile ATCC 9689, read-out: MIC
[8] = ATCC17858, C. difficile ATCC 17858, read-out: MIC
[9] = ATCC43255, C. difficile ATCC 43255, read-out: MIC
[10] = ATCC51695, C. difficile ATCC 51695, read-out: MIC
[11] = ATCCBAA1871, C. difficile ATCC BAA-1871, read-out: MIC
[12] = C. difficile Clinical isolate #1, read-out: MIC
[13] = C. difficile Clinical isolate #2, read-out: MIC

SMILES	MIC50 [1, 5] [µM]	MIC50 [2, 6] [µM]	MIC (C. difficile; [7]) [µg/mL]	MIC (C. difficile; [8]) [µg/mL]	MIC (C. difficile; [9]) [µg/mL]	MIC (C. difficile; [10]) [µg/mL]	MIC (C. difficile; [11]) [µg/mL]	MIC (C. difficile; [12]) [µg/mL]	MIC (C. difficile; [13]) [µg/mL]	further results
CC[C@H]1OC(=O)[C@H](C)[C@@H](O[C@H]2C[C@@](C)(OC)[C@@H](O)[C@H](C)O2)[C@H](C)[C@@H](O[C@@H]2O[C@H](C)C[C@H](N(C)C)[C@H]2O)[C@](C)(OC)C[C@@H](C)C(=O)[C@H](C)[C@@H](O)[C@]1(C)O [CLR, Clarithromycin]	0.143 (≈ 0.107 µg/mL)	0.076 (≈ 0.0568 µg/mL)								
Cc1ncc([N+](=O)[O-])n1CCO [MDZ, Metronidazole]			1 (≈ 5.84 µM)	1 (≈ 5.84 µM)	2 (≈ 11.7 µM)	2 (≈ 11.7 µM)	2 (≈ 11.7 µM)	1 (≈ 5.84 µM)	2 (≈ 11.7 µM)	
COc1c(N2C[C@@H]3CCCN[C@@H]3C2)c(F)cc2c(=O)c(C(=O)O)cn(C3CC3)c12 [MXF, Moxifloxacin]			1 (≈ 2.49 µM)	2 (≈ 4.98 µM)	2 (≈ 4.98 µM)	2 (≈ 4.98 µM)	32 (≈ 79.7 µM)	32 (≈ 79.7 µM)	2 (≈ 4.98 µM)	
C/C=C(\NC(=O)c1csc(-c2csc(-c3ccc4c(n3)-c3csc(n3)[C@H]([C@@H](C)O)NC(=O)c3csc(n3)[C@H](C(C)C)NC(=O)c3csc(n3)/C(=C/C)NC(=O)[C@H]([C@@H](C)O)NC(=O)c3csc-4n3)n2)n1)C(=O)NCC(C)=O [Micrococcin P2]			0.5 (≈ 0.438 µM)	1 (≈ 0.875 µM)	2 (≈ 1.75 µM)		1 (≈ 0.875 µM)	1 (≈ 0.875 µM)	1 (≈ 0.875 µM)	MIC50 [3]: 0.654 µM (≈ 0.747 µg/mL); secretion amount of IL-6 (IL-6): significantly decreased; MIC50 (M. tuberculosis; H37RV, M. tuberculosis H37Rv): 0.089 µM (≈ 0.102 µg/mL); MIC50 (M. tuberculosis; Pan-susceptible isolate #2 (Pan-S2)): 0.199 µM (≈ 0.227 µg/mL); MIC50 (M. tuberculosis; Pan-susceptible isolate #4 (Pan-S4)): 0.356 µM (≈ 0.407 µg/mL); MIC50 (M. tuberculosis; Pan-susceptible isolate #6 (Pan-S6)): 0.354 µM (≈ 0.404 µg/mL); MIC50 (M. tuberculosis; Pan-susceptible isolate #7 (Pan-S7)): 0.208 µM (≈ 0.238 µg/mL); MIC (C. difficile; ATCC51695): 1 µg/mL (≈ 0.875 µM); MIC50 ([1]; Mycobacterium intracellulare): 0.033 µM (≈ 0.0377 µg/mL); MIC50 ([2]; Mycobacterium avium): 0.028 µM (≈ 0.032 µg/mL); secretion amount of IL-1B (Il-1B): significantly decreased; death by C. difficile recurrence after drug administration ([4]; followed about 2 weeks): no death individual occurred by C. difficile recurrence; survival rate ([4]; survival followed about 2 weeks): 100%
CO[C@H]1/C=C/O[C@@]2(C)Oc3c(C)c(O)c4c(O)c(c(/C=N/N5CCN(C)CC5)c(O)c4c3C2=O)NC(=O)/C(C)=C\C=C\[C@H](C)[C@H](O)[C@@H](C)[C@@H](O)[C@@H](C)[C@H](OC(C)=O)[C@@H]1C [RIF, Rifampicin]	0.38 (≈ 0.313 µg/mL)	6.6 (≈ 5.43 µg/mL)								
CN[C@H](CC(C)C)C(=O)N[C@H]1C(=O)N[C@@H](CC(N)=O)C(=O)N[C@H]2C(=O)N[C@H]3C(=O)N[C@H](C(=O)N[C@H](C(=O)O)c4cc(O)cc(O)c4-c4cc3ccc4O)[C@H](O)c3ccc(c(Cl)c3)Oc3cc2cc(c3O[C@@H]2O[C@H](CO)[C@@H](O)[C@H](O)[C@H]2O[C@H]2C[C@](C)(N)[C@H](O)[C@H](C)O2)Oc2ccc(cc2Cl)[C@H]1O [VAN, Vancomycin]			2 (≈ 1.38 µM)	1 (≈ 0.69 µM)	1 (≈ 0.69 µM)	2 (≈ 1.38 µM)	1 (≈ 0.69 µM)	4 (≈ 2.76 µM)	1 (≈ 0.69 µM)	

Source: US20240277800A1, “PHARMACEUTICAL COMPOSITION COMPRISING MACROCOSINE COMPOUND AND METHOD FOR PREPARING MACROCOSINE COMPOUND” (priority 2021, published 2024)
